Results: patent publication US8227422B2, “Peptides and compounds that bind to a receptor” (Glaxosmithkline LLC, priority 1996, dated 2012)
Read-outs that look alike come from different tables or passages of the source. Where a SMILES comes first, the peptide text is derived from it.

What was measured:
[1] = target: T1, human TPO-R (transfected Ba/F3 cells) (Homo sapiens, UniProt P40238); experiment: Thrombopoietin dependent cell proliferation assay (MTT), TPO-R transfected Ba/F3 cells; assay type: cell-based
T1 construct: Murine IL-3 dependent Ba/F3 cells were transfected with full length human TPO-R; expressed in transfected cells; host or cells: murine Ba/F3 cells
T1 sequence (P40238 26-635): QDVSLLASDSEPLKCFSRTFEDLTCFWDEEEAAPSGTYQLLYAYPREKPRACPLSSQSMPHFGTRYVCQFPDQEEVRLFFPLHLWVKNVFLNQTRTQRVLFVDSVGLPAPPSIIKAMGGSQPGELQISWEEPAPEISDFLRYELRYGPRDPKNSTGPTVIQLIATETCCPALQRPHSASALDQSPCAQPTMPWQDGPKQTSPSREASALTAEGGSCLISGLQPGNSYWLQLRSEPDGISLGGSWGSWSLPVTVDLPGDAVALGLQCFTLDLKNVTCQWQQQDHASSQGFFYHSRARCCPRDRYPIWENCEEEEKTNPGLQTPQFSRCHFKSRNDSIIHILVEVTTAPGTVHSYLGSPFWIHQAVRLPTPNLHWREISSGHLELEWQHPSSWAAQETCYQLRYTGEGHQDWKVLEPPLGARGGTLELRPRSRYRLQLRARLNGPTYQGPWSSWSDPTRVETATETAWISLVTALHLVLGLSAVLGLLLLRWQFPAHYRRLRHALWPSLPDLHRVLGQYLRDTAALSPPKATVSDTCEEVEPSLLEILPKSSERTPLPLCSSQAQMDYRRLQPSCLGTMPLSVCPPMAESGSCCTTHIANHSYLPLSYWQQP
Procedure: Bioactivity of the peptides can be measured using a thrombopoietin dependent cell proliferation assay. Murine IL-3 dependent Ba/F3 cells were transfected with full length human TPO-R. In the absence of IL-3 (WEHI-3 conditioned media), these cells are dependent on TPO for proliferation.
The cells were grown in complete RPMI-10 media, containing 10% WEHI-3 conditioned media, then washed twice in PBS, resuspended in media which lacked WEHI-3 conditioned media, and added to wells containing dilutions of peptide or TPO at 2×10^4 cells/well. The cells were incubated for 48 hours at 37° C. in a humidified 5% CO2 atmosphere and metabolic activity was assayed by the reduction of MTT to formazan, with absorbance at 570 nm measured on an ELISA plate reader.

TPO receptor = target: T2, TPO receptor (Homo sapiens, UniProt P40238); experiment: Microphysiometer assay: rate of acidification of extracellular medium on TPO receptor stimulation; assay type: cell-based
T2 sequence (P40238 26-635): T1 sequence (P40238 26-635)
Procedure: In this example cyclized compounds were subjected to three assays. […] Finally, a microphysiometer (Molecular Devices Corp.) assay was performed. […] The ranges for EC50 are symbolically indicated as for IC50 described above.

[2] = Table 4, cyclized compounds, read-out: EC50 (nM) Proliferation
[3] = Table 4, cyclized compounds, microphysiometer, read-out: EC50 (nM) Microonys

SMILES	EC50 [1, 2]	EC50 (TPO receptor; [3])	also measured
CC[C@H](C)[C@@H]1NC(=O)[C@H](Cc2c[nH]c3ccccc23)NC(=O)[C@H](CCC(=O)O)NC(=O)[C@H](CCCNC(=N)N)NC(=O)[C@H](CC(C)C)NC(=O)[C@H]([C@@H](C)O)NC(=O)[C@@H]2CCCN2C(=O)CNC(=O)[C@H](CC(=O)O)NC(=O)[C@H](C)NC(=O)CSC[C@@H](C(N)=O)NC(=O)[C@H](Cc2ccccc2)NC(=O)[C@H](CO)NC1=O (HELM PEPTIDE1{[O=C(C[*:3])[*:2]].A.D.G.P.T.L.R.E.W.I.S.F.C.[am]}$PEPTIDE1,PEPTIDE1,1:R3-14:R3$$$V2.0)	< 500 nM	< 500 nM	–
CC[C@H](C)[C@@H]1NC(=O)[C@H](Cc2c[nH]c3ccccc23)NC(=O)[C@H](CCC(=O)O)NC(=O)[C@H](CCCNC(=N)N)NC(=O)[C@H](CC(C)C)NC(=O)[C@H]([C@@H](C)O)NC(=O)[C@@H]2CCCN2C(=O)CNC(=O)[C@H](CC(=O)O)NC(=O)[C@H](C)NC(=O)[C@@H](N)C(C)(C)SSC(C)(C)[C@@H](C(N)=O)NC(=O)[C@H](Cc2ccccc2)NC(=O)[C@H](CO)NC1=O (HELM PEPTIDE1{[Pen].A.D.G.P.T.L.R.E.W.I.S.F.[Pen].[am]}$PEPTIDE1,PEPTIDE1,1:R3-14:R3$$$V2.0)	< 200000 nM	< 200000 nM	–
CC[C@H](C)[C@@H]1NC(=O)[C@H](Cc2c[nH]c3ccccc23)NC(=O)[C@H](CCC(=O)O)NC(=O)[C@H](CCCNC(=N)N)NC(=O)[C@H](CC(C)C)NC(=O)[C@H]([C@@H](C)O)NC(=O)[C@@H]2CCCN2C(=O)CNC(=O)[C@H](CC(=O)O)NC(=O)[C@H](C)NC(=O)[C@@H](N)CCC(=O)NCCCC[C@@H](C(N)=O)NC(=O)[C@H](Cc2ccccc2)NC(=O)[C@H](CO)NC1=O (HELM PEPTIDE1{E.A.D.G.P.T.L.R.E.W.I.S.F.K.[am]}$PEPTIDE1,PEPTIDE1,1:R3-14:R3$$$V2.0)	< 200000 nM	< 200000 nM	–
CC[C@H](C)[C@@H]1NC(=O)[C@H](Cc2c[nH]c3ccccc23)NC(=O)[C@H](CCC(=O)O)NC(=O)[C@H](CCCNC(=N)N)NC(=O)[C@H](CC(C)C)NC(=O)[C@H]([C@@H](C)O)NC(=O)[C@@H]2CCCN2C(=O)CNC(=O)[C@H](CC(=O)O)NC(=O)[C@H](C)NC(=O)[C@@H](N)CCCCNC(=O)CC[C@@H](C(N)=O)NC(=O)[C@H](Cc2ccccc2)NC(=O)[C@H](CO)NC1=O (HELM PEPTIDE1{K.A.D.G.P.T.L.R.E.W.I.S.F.E.[am]}$PEPTIDE1,PEPTIDE1,1:R3-14:R3$$$V2.0)	< 200000 nM	< 200000 nM	–
CCCC1SC[C@@H](C(N)=O)NC(=O)[C@H](Cc2ccccc2)NC(=O)[C@H](CO)NC(=O)[C@H]([C@@H](C)CC)NC(=O)[C@H](Cc2c[nH]c3ccccc23)NC(=O)[C@H](CCC(=O)O)NC(=O)[C@H](CCCNC(=N)N)NC(=O)[C@H](CC(C)C)NC(=O)[C@H]([C@@H](C)O)NC(=O)[C@@H]2CCCN2C(=O)CNC(=O)[C@H](CC(=O)O)NC(=O)[C@H](C)NC1=O (stereo partly drawn) (HELM PEPTIDE1{A.D.G.P.T.L.R.E.W.I.S.F.C.[am]}|CHEM1{[CCCC(C(=O)[*:1])[*:2]]}$PEPTIDE1,CHEM1,1:R1-1:R1|PEPTIDE1,CHEM1,13:R3-1:R2$$$V2.0)	< 500 nM	< 200000 nM	–
CC[C@H](C)[C@@H]1NC(=O)[C@H](Cc2c[nH]c3ccccc23)NC(=O)[C@H](CCC(=O)O)NC(=O)[C@H](CCCNC(=N)N)NC(=O)[C@H](CC(C)C)NC(=O)[C@H]([C@@H](C)O)NC(=O)[C@@H]2CCCN2C(=O)CNC(=O)[C@H](CC(=O)O)NC(=O)[C@H](C)NC(=O)[C@@H](N)CCSSC[C@@H](C(N)=O)NC(=O)[C@H](Cc2ccccc2)NC(=O)[C@H](CO)NC1=O (HELM PEPTIDE1{[N[C@@H](CCS[*:3])C(=O)[*:2]].A.D.G.P.T.L.R.E.W.I.S.F.C.[am]}$PEPTIDE1,PEPTIDE1,1:R3-14:R3$$$V2.0)	< 500 nM	< 500 nM	–
CC[C@H](C)[C@@H]1NC(=O)[C@H](Cc2c[nH]c3ccccc23)NC(=O)[C@H](CCC(=O)O)NC(=O)[C@H](CCCNC(=N)N)NC(=O)[C@H](CC(C)C)NC(=O)[C@H]([C@@H](C)O)NC(=O)[C@@H]2CCCN2C(=O)CNC(=O)[C@H](CC(=O)O)NC(=O)[C@H](C)NC(=O)CSC[C@@H](C(=O)O)NC(=O)[C@H](Cc2ccccc2)NC(=O)[C@H](CO)NC1=O [free acid form] (HELM PEPTIDE1{[O=C(C[*:3])[*:2]].A.D.G.P.T.L.R.E.W.I.S.F.C}$PEPTIDE1,PEPTIDE1,1:R3-14:R3$$$V2.0)	–	–	EC50 ([1]; Table 6, read-out: EC50 (nM) Cell Prolif.): < 500 nM; EC50 (TPO receptor; Table 6, value in parentheses, read-out: EC50 (nM), microphysiometer results in parentheses): < 200000 nM
CC[C@H](C)[C@@H]1NC(=O)[C@H](Cc2c[nH]c3ccccc23)NC(=O)[C@H](CCC(=O)O)NC(=O)[C@H](CCCNC(=N)N)NC(=O)[C@H](CC(C)C)NC(=O)[C@H]([C@@H](C)O)NC(=O)[C@@H]2CCCN2C(=O)CNC(=O)[C@H](CC(=O)O)NC(=O)[C@H](C)NC(=O)[C@H](N)CSSC[C@H](C(N)=O)NC(=O)[C@H](Cc2ccccc2)NC(=O)[C@H](CO)NC1=O (HELM PEPTIDE1{[dC].A.D.G.P.T.L.R.E.W.I.S.F.[dC].[am]}$PEPTIDE1,PEPTIDE1,1:R3-14:R3$$$V2.0)	< 200000 nM	< 200000 nM	–
CC(C)C[C@H](NC(=O)[C@H](Cc1c[nH]c2ccccc12)NC(=O)[C@H](CCC(N)=O)NC(=O)[C@H](CCCNC(=N)N)NC(=O)[C@H](CC(C)C)NC(=O)[C@@H](NC(=O)[C@@H]1CCCN1C(=O)CNC(=O)[C@H](CSSC[C@H](NC(=O)[C@H](CCC(N)=O)NC(=O)[C@@H](NC(=O)[C@@H](N)CO)C(C)C)C(=O)NCC(=O)N1CCC[C@H]1C(=O)N[C@H](C(=O)N[C@@H](CC(C)C)C(=O)N[C@@H](CCCNC(=N)N)C(=O)N[C@@H](CCC(N)=O)C(=O)N[C@@H](Cc1c[nH]c2ccccc12)C(=O)N[C@@H](CC(C)C)C(=O)N[C@@H](C)C(=O)N[C@@H](C)C(=O)N[C@@H](CCCNC(=N)N)C(=O)N[C@@H](CC(N)=O)C(=O)N[C@@H](Cc1c[nH]cn1)C(=O)N[C@@H](CC(C)C)C(=O)N[C@@H](CO)C(N)=O)[C@@H](C)O)NC(=O)[C@H](CCC(N)=O)NC(=O)[C@@H](NC(=O)[C@@H](N)CO)C(C)C)[C@@H](C)O)C(=O)N[C@@H](C)C(=O)N[C@@H](C)C(=O)N[C@@H](CCCNC(=N)N)C(=O)N[C@@H](CC(N)=O)C(=O)N[C@@H](Cc1c[nH]cn1)C(=O)N[C@@H](CC(C)C)C(=O)N[C@@H](CO)C(N)=O (HELM PEPTIDE1{S.V.Q.C.G.P.T.L.R.Q.W.L.A.A.R.N.H.L.S.[am]}|PEPTIDE2{S.V.Q.C.G.P.T.L.R.Q.W.L.A.A.R.N.H.L.S.[am]}$PEPTIDE1,PEPTIDE2,4:R3-4:R3$$$V2.0; bridges inferred)	–	–	EC50 ([1]; Table 7, dimer compounds, read-out: EC50 (nM) Prolif.): < 500 nM; EC50 (TPO receptor; Table 7, dimer compounds, read-out: EC50 (nM) Microonys.): < 500 nM
